Calls of active or inactive are those of the source. The calls are words filed in the database; no cut-off is given here. Non-standard residues stand in square brackets, D forms with d. Residues, ends and D or L forms follow the SMILES beside them. ξ: configuration not given here. ξS = NC(CO)C(=O)O

Experiment [1] concerns the target T1, BTB/POZ domain-containing protein KCTD12 (Homo sapiens, UniProt Q96CX2). In words: Binding affinity to recombinant human 6X His-tagged KCTD12 T1 domain (27 to 131 residues) expressed in Escherichia coli BL21 DE3 cells preincubated for 1 hr followed by probing with HRP-conjugated 6X-His tag antibody for 0.5 hrs by SPOT peptide microarray analysis.
Experiment [2] has as its target BTB/POZ domain-containing protein KCTD8 (Homo sapiens) (UniProt Q6ZWB6). In words: Displacement of TAMRA-AAG-SLQLPILHHAYLPSIGGV from recombinant human 6X His-tagged KCTD8 T1 domain (37 to 148 residues) expressed in Escherichia coli BL21 DE3 cells by fluorescence polarization assay. A general note: Fluorescence polarisation rises when a labelled molecule tumbles more slowly, as on binding a larger partner.

In experiment [3] the target is BTB/POZ domain-containing protein KCTD16 (Homo sapiens) (UniProt Q68DU8). Put plainly: Displacement of TAMRA-AAG-SLQLPILHHAYLPSIGGV from recombinant 6X His tagged KCTD16 T1 domain (unknown origin) by fluorescence polarization assay.
Chain of BTB/POZ domain-containing protein KCTD16 (Homo sapiens) (Q68DU8 whole entry, the tested form may be a part): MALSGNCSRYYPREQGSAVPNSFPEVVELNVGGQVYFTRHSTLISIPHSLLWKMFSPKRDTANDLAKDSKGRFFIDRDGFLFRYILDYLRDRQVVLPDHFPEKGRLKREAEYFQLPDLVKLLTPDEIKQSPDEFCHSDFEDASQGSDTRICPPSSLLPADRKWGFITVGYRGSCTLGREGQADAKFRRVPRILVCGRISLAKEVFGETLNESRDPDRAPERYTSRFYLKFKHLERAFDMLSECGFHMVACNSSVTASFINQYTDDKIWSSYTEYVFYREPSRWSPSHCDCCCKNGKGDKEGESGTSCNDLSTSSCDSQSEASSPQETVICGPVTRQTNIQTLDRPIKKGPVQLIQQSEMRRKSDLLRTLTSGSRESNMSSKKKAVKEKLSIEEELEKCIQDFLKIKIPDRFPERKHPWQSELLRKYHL
Experiment [4] shares this target. Put plainly: Binding affinity to recombinant 6X His-tagged KCTD16 T1 domain (unknown origin) assessed as high-order oligomer formation by measuring oligomer molecular weight at protein:compound concentration ratio of 1:2 by SEC-MALS analysis (reference value: […] +/- 2.5 kDa). For orientation: Size exclusion chromatography separates by hydrodynamic size, large species first.

For experiment [5] the target is unchanged. In words: Binding affinity to recombinant 6X His-tagged KCTD16 T1 domain (unknown origin) assessed as increase in thermal stability of the protein at protein:compound ratio of 1:5 by Thermofluor analysis. On the technique in general: DSF heats the sample and reads unfolding from a dye or from intrinsic fluorescence.
Experiment [6] concerns the target BTB/POZ domain-containing protein KCTD8 (Homo sapiens) (UniProt Q6ZWB6). In words: Binding affinity to Myc-tagged full length KCTD8 (unknown origin) expressed in HEK293 cells using resin-bound immobilized compound by pull down analysis. The format is cell-based.
In experiment [7] the target is BTB/POZ domain-containing protein KCTD16 (Homo sapiens) (UniProt Q68DU8). Put plainly: Binding affinity to Myc-tagged full length KCTD16 (unknown origin) expressed in HEK293 cells using resin-bound immobilized compound by pull down analysis. It counts as cell-based.
Experiment [8] concerns the target BTB/POZ domain-containing protein KCTD8 (Mus musculus) (UniProt Q50H33). Put plainly: Binding affinity to KCTD8 in wild type mouse brain membrane using resin-bound immobilized compound incubated for overnight by pull-down experiment based immunoblot analysis. It counts as cell membranes.
Experiment [9] addresses BTB/POZ domain-containing protein KCTD12 (Mus musculus) (UniProt Q6WVG3). Put plainly: Binding affinity to KCTD12 in wild type mouse brain membrane using resin-bound immobilized compound incubated for overnight by pull-down experiment based immunoblot analysis. It counts as cell membranes.
The target of experiment [10] is BTB/POZ domain-containing protein KCTD16 (Mus musculus) (UniProt Q5DTY9). In words: Binding affinity to KCTD16 in wild type mouse brain membrane using resin-bound immobilized compound incubated for overnight by pull-down experiment based immunoblot analysis. It counts as cell membranes.
Chain of BTB/POZ domain-containing protein KCTD16 (Mus musculus) (Q5DTY9 whole entry, the tested form may be a part): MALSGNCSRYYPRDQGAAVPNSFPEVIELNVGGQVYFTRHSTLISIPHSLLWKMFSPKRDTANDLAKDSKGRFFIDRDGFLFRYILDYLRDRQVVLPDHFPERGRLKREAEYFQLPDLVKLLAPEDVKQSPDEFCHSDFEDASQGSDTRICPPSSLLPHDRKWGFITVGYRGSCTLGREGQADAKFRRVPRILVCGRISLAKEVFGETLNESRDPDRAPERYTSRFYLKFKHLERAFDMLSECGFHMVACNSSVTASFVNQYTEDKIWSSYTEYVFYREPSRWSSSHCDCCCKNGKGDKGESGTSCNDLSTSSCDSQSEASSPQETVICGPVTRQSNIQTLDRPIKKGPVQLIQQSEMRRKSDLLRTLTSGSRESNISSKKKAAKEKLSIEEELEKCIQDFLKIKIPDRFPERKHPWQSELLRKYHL
Experiment [11] concerns the target BTB/POZ domain-containing protein KCTD8 (Mus musculus) (UniProt Q50H33). In words: Binding affinity to KCTD8 in wild type mouse brain cytoplasmic fraction using resin-bound immobilized compound incubated for overnight by pull-down experiment based immunoblot analysis. The format is subcellular.
Experiment [12] deals with BTB/POZ domain-containing protein KCTD12 (Mus musculus) (UniProt Q6WVG3). Put plainly: Binding affinity to KCTD12 in wild type mouse brain cytoplasmic fraction using resin-bound immobilized compound incubated for overnight by pull-down experiment based immunoblot analysis. The format is subcellular.
Chain of BTB/POZ domain-containing protein KCTD12 (Mus musculus) (Q6WVG3 whole entry, the tested form may be a part): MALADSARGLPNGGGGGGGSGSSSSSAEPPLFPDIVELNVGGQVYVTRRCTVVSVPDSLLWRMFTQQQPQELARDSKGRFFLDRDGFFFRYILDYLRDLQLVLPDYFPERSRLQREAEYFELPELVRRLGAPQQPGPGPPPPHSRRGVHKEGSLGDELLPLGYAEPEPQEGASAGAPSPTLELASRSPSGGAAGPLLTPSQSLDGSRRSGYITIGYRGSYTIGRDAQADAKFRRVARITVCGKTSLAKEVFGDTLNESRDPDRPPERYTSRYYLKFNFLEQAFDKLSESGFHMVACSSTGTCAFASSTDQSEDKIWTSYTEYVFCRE
For experiment [13], the target named is BTB/POZ domain-containing protein KCTD16 (Mus musculus) (UniProt Q5DTY9). In words: Binding affinity to KCTD16 in wild type mouse brain cytoplasmic fraction using resin -bound immobilized compound incubated for overnight by pull-down experiment based immunoblot analysis. It counts as subcellular.
The target in experiment [14] is T1, BTB/POZ domain-containing protein KCTD12. In words: Displacement of TAMRA-AAG-SLQLPILHHAYLPSIGGV from recombinant human 6X His-tagged KCTD12 T1 domain (27 to 131 residues) expressed in Escherichia coli BL21 DE3 cells by fluorescence polarization assay.

Chain of BTB/POZ domain-containing protein KCTD8 (Mus musculus) (Q50H33 whole entry, the tested form may be a part): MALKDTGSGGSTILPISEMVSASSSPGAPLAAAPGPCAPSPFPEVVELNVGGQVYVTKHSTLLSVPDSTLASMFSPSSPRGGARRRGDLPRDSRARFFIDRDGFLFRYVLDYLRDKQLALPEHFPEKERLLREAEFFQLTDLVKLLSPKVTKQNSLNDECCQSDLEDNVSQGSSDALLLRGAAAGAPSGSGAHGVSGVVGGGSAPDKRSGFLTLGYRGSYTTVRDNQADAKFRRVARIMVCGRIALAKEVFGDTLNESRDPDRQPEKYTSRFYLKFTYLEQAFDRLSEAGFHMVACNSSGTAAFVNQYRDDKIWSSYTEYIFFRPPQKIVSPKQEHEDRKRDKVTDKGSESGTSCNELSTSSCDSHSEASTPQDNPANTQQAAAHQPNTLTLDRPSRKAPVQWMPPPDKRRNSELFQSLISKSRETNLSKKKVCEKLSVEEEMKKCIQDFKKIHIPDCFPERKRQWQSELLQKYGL
T1 sequence (Q96CX2 whole entry, the tested form may be a part): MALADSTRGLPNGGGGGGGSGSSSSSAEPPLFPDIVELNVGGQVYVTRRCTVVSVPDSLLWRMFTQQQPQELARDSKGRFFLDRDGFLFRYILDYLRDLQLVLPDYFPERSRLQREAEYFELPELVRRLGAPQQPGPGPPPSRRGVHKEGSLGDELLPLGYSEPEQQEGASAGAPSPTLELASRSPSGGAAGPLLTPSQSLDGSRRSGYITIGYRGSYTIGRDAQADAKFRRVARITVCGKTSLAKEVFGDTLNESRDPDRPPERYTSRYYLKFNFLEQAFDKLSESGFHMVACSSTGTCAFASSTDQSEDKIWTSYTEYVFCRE
Chain of BTB/POZ domain-containing protein KCTD8 (Homo sapiens) (Q6ZWB6 whole entry, the tested form may be a part): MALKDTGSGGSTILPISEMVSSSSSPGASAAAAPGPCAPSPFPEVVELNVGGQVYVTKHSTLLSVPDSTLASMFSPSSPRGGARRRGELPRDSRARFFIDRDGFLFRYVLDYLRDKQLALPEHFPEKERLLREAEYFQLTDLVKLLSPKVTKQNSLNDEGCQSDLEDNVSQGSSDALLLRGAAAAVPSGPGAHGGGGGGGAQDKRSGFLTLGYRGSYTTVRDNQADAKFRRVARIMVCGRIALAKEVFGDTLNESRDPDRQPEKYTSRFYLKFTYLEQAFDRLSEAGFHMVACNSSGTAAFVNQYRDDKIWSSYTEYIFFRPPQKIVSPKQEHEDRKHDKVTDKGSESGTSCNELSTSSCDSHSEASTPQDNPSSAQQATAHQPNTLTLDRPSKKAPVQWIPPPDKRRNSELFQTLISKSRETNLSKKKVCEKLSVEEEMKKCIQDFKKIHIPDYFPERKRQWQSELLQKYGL

For the molecule `CC(C)C[C@H](NC(=O)[C@H](CCCNC(=N)N)NC(=O)[C@H](CC(=O)O)NC(=O)[C@@H]1CCCN1C(=O)[C@@H]1CCCN1C(=O)[C@H](CCC(=O)O)NC(=O)[C@@H]1CCCN1)C(=O)N[C@@H](CO)C(=O)N[C@@H](CS)C(=O)N[C@@H](CC(=O)O)C(=O)NCC(=O)N[C@@H](CO)C(=O)N[C@@H](CCCNC(=N)N)C(=O)N[C@H](C(=O)N[C@@H](Cc1cnc[nH]1)C(=O)O)C(C)C`, the concentration giving a half-maximal response (EC50) (in general, the concentration needed to bring the measured effect to its halfway point) in [1] is given as “Not Active”.
Still for that read-out and setting: as for `CC(C)C[C@H](NC(=O)CNC(=O)CNC(=O)[C@H](CO)NC(=O)[C@@H]1CCCN1C(=O)[C@H](CCC(=O)O)NC(=O)[C@@H]1CCCN1C(=O)[C@@H]1CCCN1C(=O)[C@H](NC(=O)[C@@H]1CCCN1C(=O)[C@@H]1CCCN1C(=O)[C@H](Cc1cnc[nH]1)NC(=O)[C@H](CCCNC(=N)N)NC(=O)[C@@H](N)CCCNC(=N)N)[C@@H](C)O)C(=O)N1CCC[C@H]1C(=O)O`, the entry is “Not Active”.
In the case of `CC[C@H](C)[C@H](NC(=O)[C@H](CO)NC(=O)[C@@H]1CCCN1C(=O)[C@H](CC(C)C)NC(=O)[C@H](Cc1ccc(O)cc1)NC(=O)[C@H](C)NC(=O)[C@H](Cc1cnc[nH]1)NC(=O)[C@H](Cc1cnc[nH]1)NC(=O)[C@H](CC(C)C)NC(=O)[C@H](NC(=O)[C@@H]1CCCN1C(=O)[C@H](CC(C)C)NC(=O)[C@H](CCC(N)=O)NC(=O)[C@H](CC(C)C)NC(=O)[C@H](CO)NC(=O)[C@H](CC(C)C)NC(=O)[C@H](CCCNC(=N)N)NC(=O)[C@@H](N)CCCNC(=N)N)[C@@H](C)CC)C(=O)O`, the result in [2] and in experiment [3] was Active.
Turning to `CC[C@H](C)[C@H](NC(=O)[C@H](CO)NC(=O)[C@@H]1CCCN1C(=O)[C@H](CC(C)C)NC(=O)[C@H](Cc1ccc(O)cc1)NC(=O)[C@H](C)NC(=O)[C@H](Cc1cnc[nH]1)NC(=O)[C@H](Cc1cnc[nH]1)NC(=O)[C@H](CC(C)C)NC(=O)[C@H](NC(=O)[C@@H]1CCCN1C(=O)[C@H](Cc1ccc(O)cc1)NC(=O)[C@H](CC(N)=O)NC(=O)[C@H](Cc1ccc(O)cc1)NC(=O)[C@H](N)Cc1ccc(O)cc1)[C@@H](C)CC)C(=O)NCC(=O)NCC(=O)N[C@H](C(=O)O)C(C)C`, the Activity in experiment [4] stood at 60.1 kDa. Moreover, the outcome in experiment [5], in [6], in [7], in experiment [8], in experiment [9] and in experiment [10] was Active. Also, the outcome in experiment [11], in experiment [12] and in experiment [13] was Active.
Consider `CC[C@H](C)[C@H](NC(=O)C(CO)NC(=O)[C@@H]1CCCN1C(=O)[C@H](CC(C)C)NC(=O)[C@H](C)NC(=O)[C@H](C)NC(=O)[C@H](Cc1cnc[nH]1)NC(=O)[C@H](Cc1cnc[nH]1)NC(=O)[C@H](CC(C)C)NC(=O)[C@@H](NC(=O)[C@@H]1CCCN1C(=O)[C@H](CC(C)C)NC(=O)[C@H](CCC(N)=O)NC(=O)[C@H](CC(C)C)NC(=O)[C@@H](N)CO)[C@@H](C)CC)C(=O)NCC(=O)NCC(=O)N[C@H](C(=O)O)C(C)C` (some centres not stated) (H-SLQLPILHHAALP[ξS]IGGV-OH), for which the EC50 entry in experiment [1] is recorded as “Not Active”. Further, in [14], the IC50 entry is “Not Active” and the Ki entry was “Not Active”.
Take `CC[C@H](C)[C@H](NC(=O)C(CO)NC(=O)[C@@H]1CCCN1C(=O)[C@H](CC(C)C)NC(=O)[C@H](Cc1ccccc1)NC(=O)[C@H](C)NC(=O)[C@H](Cc1cnc[nH]1)NC(=O)[C@H](Cc1cnc[nH]1)NC(=O)[C@H](CC(C)C)NC(=O)[C@@H](NC(=O)[C@@H]1CCCN1C(=O)[C@H](CC(C)C)NC(=O)[C@H](CCC(N)=O)NC(=O)[C@H](CC(C)C)NC(=O)[C@@H](N)CO)[C@@H](C)CC)C(=O)NCC(=O)NCC(=O)N[C@H](C(=O)O)C(C)C` (some centres not stated) (H-SLQLPILHHAFLP[ξS]IGGV-OH): the 50% effective concentration (EC50) result in experiment [1] is recorded as “Not Active”. In addition, in experiment [14], the IC50 entry was “Not Active” and the Ki entry is listed as “Not Active”.
As for H-AEKEERVSELRHQLQ-OH, the concentration giving a half-maximal response (EC50) result in experiment [1] is on record as “Not Active”.
On the same count and under the same terms, under H-EAQDTMKTGSSTNNN-OH stands “Not Active”.
Still for that read-out and setting: under H-EEKSRLLEKENRELE-OH stands “Not Active”.
Still for that read-out and setting: as for H-EKIIAEKEERVSELR-OH, the entry is “Not Active”; as for H-ELEKIIAEKEERVSE-OH, “Not Active”; as for H-EPSGGLPRGPPEPPD-OH, “Not Active”.
Turning to H-GLPRGPPEPPDRLSC-OH, in experiment [1], the EC50 entry is reported as “Not Active”.
Still for that read-out and setting: under H-GPPEPPDRLSCDGSR-OH stands “Not Active”; under H-GSSTNNNEEEKSRLL-OH, “Not Active”; under H-HPPTPPEPSGGLPRG-OH, “Not Active”.
Still for that read-out and setting: under H-IIAEKEERVSELRHQ-OH stands “Not Active”; under H-KEERVSELRHQLQSR-OH, “Not Active”.
As to H-KENRELEKIIAEKEE-OH, the concentration giving a half-maximal response (EC50) result in [1] was “Not Active”.
Same read-out and setting: under H-KSRLLEKENRELEKI-OH stands “Not Active”; under H-KTGSSTNNNEEEKSR-OH, “Not Active”; under H-LEKENRELEKIIAEK-OH, “Not Active”.
Take H-LPILHHAYLPSIGGV-OH: the result in [1] was Active.
Still for that read-out and setting: as for H-LQLPILHHAYLPSIG-OH, the entry is “Active”.
With H-NEEEKSRLLEKENRE-OH, the EC50 entry in [1] is “Not Active”.
On the same count and under the same terms, as for H-NNNEEEKSRLLEKEN-OH, the entry is “Not Active”.
Still for that read-out and setting: under H-NRELEKIIAEKEERV-OH stands “Not Active”; under H-PPEPSGGLPRGPPEP-OH, “Not Active”.
Still for that read-out and setting: as for H-PRGPPEPPDRLSCDG-OH, the entry is “Not Active”; as for H-PTPPEPSGGLPRGPP-OH, “Not Active”.
Regarding H-QDTMKTGSSTNNNEE-OH, in [1], the EC50 result is given as “Not Active”.
As for H-QLPILHHAYLPSIGG-OH, the result in [1] was Active.
In the case of H-RLLEKENRELEKIIA-OH, the concentration for a half-maximal effect (EC50) entry in [1] is listed as “Not Active”.
The same measure, in the same setting: as for H-SGGLPRGPPEPPDRL-OH, the entry is “Not Active”.
For the molecule H-SLQLPIAHHAALPSIGGV-OH, the outcome in experiment [6], in experiment [7], in [8], in experiment [9], in experiment [10] and in experiment [11] was inactive. For the same molecule, the result in experiment [12] and in experiment [13] was inactive.
As to H-SLQLPILHHAYLPSI-OH, in [1], the result was Active.
Turning to H-SLQLPILHHAYLPSIGGV-OH, the outcome in [2], in [3], in experiment [5], in experiment [6], in [7] and in experiment [8] was Active. Moreover, the outcome in experiment [9], in experiment [10], in [11], in experiment [12] and in [13] was Active. Besides, the Activity in experiment [4] was found to be 66.4 kDa.
Regarding H-SLQLPILHHAYLPSYHYY-OH, the EC50 in experiment [1] (read-out: EC50) worked out at 210 nM. In experiment [14], the IC50 result is given as “Nd(Insoluble)” and the Ki entry was “Nd(Insoluble)”.
H-SLQLPILHHAYLPYYHYY-OH: the EC50 in experiment [1] (read-out: EC50) turned out to be 1360 nM. In addition, in [14], the IC50 result is on record as “Nd(Insoluble)” and the Ki result was “Nd(Insoluble)”.
Take H-STNNNEEEKSRLLEK-OH: the EC50 entry in experiment [1] was “Not Active”.
Still for that read-out and setting: under H-TMKTGSSTNNNEEEK-OH stands “Not Active”.

(Values after ChEMBL document CHEMBL4321811, “Targeting the γ-Aminobutyric Acid Type B (GABAB) Receptor Complex: Development of Inhibitors Targeting the K+ Channel Tetramerization Domain (KCTD) Containing Proteins/GABAB Receptor Protein-Protein Interaction” (J Med Chem, 2019).)
